The results in this text go back to patent US20240067603A1, “CUBANYL BIGUANIDE COMPOUNDS” (REGENTS OF THE UNIVERSITY OF MINNESOTA, priority 2020, published 2024).

Where two headings read alike, the source gives them in different places.

One data set relates to mm001. As to the kind of experiment: Inhibition of mammary carcinoma cell line mm001. The class given is cell-based, mouse (C57BL/6). The following applies: Mus musculus, read-out: IC50 (uM), mm001. The protocol: (§1) 3-(4,5-Dimethylthiazol-2-yl)-2,5-diphenyltetrazolium Bromide (MTT) Cell Proliferation Assay. To cells grown in 96-well-tissue culture plate, 20 μl/well of MTT solution (5 mg/ml in PBS) was added. After 1-2 hours incubation at 37° C., the plate was centrifuged. Supernatant was discarded and 100 μl DMSO was added to dissolve water insoluble formazan, and the absorbance was read at 540 nm with a plate reader.

In the next data set the test system is BT474. As to the kind of experiment: Inhibition of mammary carcinoma cell line BT474. The class given is cell-based. The note with it: BT-474; Table 5; BT474, human, ERα+, HER2+. The method, then: as §1
A further data set relates to LR/FR MCF7A1C cells. The data set is described as follows: Crystal violet cell proliferation assay, LR,FR-MCF7AC1. The class given is cell-based, human. The following applies: for IC50: Homo sapiens, read-out: IC50, LR/FR MCF7A1C cells. The protocol: Derivation process of LR-FR- and LR-FR-PR resistant MCF7AC1 cells. The letrozole-resistant MCF7AC1 cell line (LR-MCF7AC1) was generated in vivo from the aromatase-expressing MCF7A C1 tumor-bearing athymic female nude mice that received letrozole therapy (10 μg/day, five days a week) over a period of 27 weeks. To facilitate tumor growth mice also received the estrogen precursor androstenedione (100 μg/day, five days a week), which is intratumorally converted by aromatase into estradiol (Yue W, et al. Cancer Res. 1994; 54(19):5092-5). With the emergence of the letrozole resistant tumors, these tumors were harvested from in vivo and the LR-MCF7AC1 cell line was established in vitro (Jayaraman S., et al. Breast Cancer Res. 2020; 22(1):51), where the cells grew in phenol-red free IMEM+10% FBS media containing antibiotics.
In a second in vivo study, the LR-MCF7AC1 tumor-bearing athymic female nude mice were randomized to multiple endocrine therapies including fulvestrant therapy (1000 μg/day, five days a week). One mouse harboring the LR-MCF7AC1 tumor began to develop resistance to fulvestrant therapy at 31 weeks of treatment. This fulvestrant-resistant LR-MCF7AC1 tumor was harvested from mice and reimplanted into mice for two successive generations. The 2nd generation tumor was harvested from in vivo and the LR,FR-MCF7AC1 cell line was established in vitro, where the cells grew in phenol-red free IMEM+10% FBS media containing antibiotics.
Cell proliferation assay: The cells mentioned in this study were seeded in 96 wells-plates (2000-4000 cells/well) and treated 24 hours later with DMSO (vehicle control), HCB or HBB drugs at the indicated concentrations. 72 hours later, the cells were fixed in situ with 25% (v/v) glutaraldehyde, followed by staining with 0.52% crystal violet (CV) in 25% methanol (Fisher Chemical). The CV stained plates were solubilized in 100 mM sodium citrate in 50% ethanol solution and absorbance of the stain measured at 550 nm using a plate reader. Each data point represents mean±SD, obtained from six wells per treatment performed in biological triplicates. […]

Data set [1] in a line: Microsomal stability, human liver microsomes. The following applies: for parent metabolite peak area after 60 min: 10 μM, human liver microsomes 1 mg/mL, NADPH 2 mM, 37° C.; for degradation pathways: human or mouse liver microsomes. The format is in vitro ADME. The protocol:
(§2) Microsomal stability of HBB and HCB were evaluated in human and mouse liver microsomes. 10 μM of HBB or HCB was tested in a biological matrix comprising of human or mouse liver microsomes (1 mg/mL) (Table 6). NADPH (2mM) was added as a cofactor. Total volume was 200 μL.
(§3) HBB or HCB was incubated for 0, 30, or 60 min at 37° C. Incubations were quenched with 2 volumes of acetonitrile followed by centrifugation for 10 min at 16,000 g.
A general note: Liver microsomes are a subcellular fraction often used to study metabolism.

Data set [2] can be described thus: Microsomal stability, mouse liver microsomes. The class given is in vitro ADME. The note with it: 10 μM, mouse liver microsomes 1 mg/mL, NADPH 2 mM, 37° C. The protocol:
as §2, §3

Another data set has as its system Vero cells. As to the kind of experiment: Cytotoxicity assay in Vero cells.
The next data set has as its system EO771. The data set is described as follows: Oxygen consumption rate (OCR), EO771. The format is cell-based, mouse (C57BL/6). The protocol: Measurement of oxygen consumption rate (OCR). Cells were maintained in growth medium consisting of 10% FBS at 37° C. with 5% CO2 and seeded at 25,000 cells per well in a 96-well XF96 cell culture microplates (Agilent, Santa Clara, CA). An 96 well XF sensor cartridge was hydrated and equilibrated with 200 ul calibrant in each well at 37° C. without CO2 overnight. Growth media was replaced with 150 μL DMEM based assay media (a non-buffered medium including 2 mM L-glutamine but no sodium bicarbonate (buffering agent), glucose, or sodium pyruvate, Agilent, Santa Clara, CA) the next day and cells were incubated CO2 free for 1 hour before the measurement of OCR by a Seahorse XFe Extracellular Flux Analyzer (Agilent, Santa Clara, CA), which measures uptake and excretion of metabolic end products in real time. After baseline measurements, 20 μl assay medium containing control vehicle or drugs were injected into corresponding wells. OCRs were measured periodically and can be reported in pmoles/minute or normalized against baseline measurements before treatment.

Consider `CCCCCCNC(=N)NC(=N)NCc1ccccc1` [HBB, N1-hexyl-N5-benzyl-biguanide], for which the IC50 came to 26.8 µM in the data set with mm001, 23.2 µM with BT474 and 3.9 µM in the data set on LR/FR MCF7A1C cells (72 h). Also, the “parent metabolite peak area after 60 min” value is 19.19% in data set [1] and 8.95% in data set [2]. For the same compound, in data set [1], the degradation pathways result was “oxidation, dehydrogenation, and glucuronidation”. The compound further returned a CC10 with Vero cells of 0.091 µM.
Turning to `CCCCCCNC(=N)NC(=N)NCC12C3C4C5C3C1C5C42` (stereo not shown) [HCB, Hexyl Cubanomethyl Biguanide], the IC50 in the data set with mm001 (Table 5, mm001, C57BL/6, Basal) was 12.1 µM; in the data set on BT474, 10.9 µM; with LR/FR MCF7A1C cells (letrozole- and fulvestrant-resistant, 72 hours, crystal violet), 1.3 µM. Also, in the data set on EO771, the “OCR Inhibition [HCB] (uM) v vs. control (P < 0.05)” value turned out to be 20 µM. Further, in the data set with LR/FR MCF7A1C cells (LR/FR and LR/FR/PR MCF7A1C cells), the “fold increase in sensitivity, HCB vs HBB” value is given as around 3 fold. Further, the “parent metabolite peak area after 60 min” value was determined as 48.18% in data set [1] and 18.63% in data set [2]. For the same compound, the degradation pathways result in data set [1] is “oxidation, dehydrogenation, and hydrogenation”. For the same compound, in the data set with Vero cells, the CC10 came to 0.201 µM.
